Assay results as given in ChEMBL document CHEMBL4814069, “Nucleotide analogues containing a pyrrolidine, piperidine or piperazine ring: Synthesis and evaluation of inhibition of plasmodial and human 6-oxopurine phosphoribosyltransferases and in vitro antimalarial activity” (Eur J Med Chem, 2021).

Assays:
[1] = Inhibition of Plasmodium falciparum HGXPRT using PRib-PP as substrate by Hanes-plot based method
[2] = Selectivity index, ratio of Ki for human HGPRT to Ki for Plasmodium falciparum HGXPRT; type: toxicity
[3] = Selectivity index, ratio of Ki for human HGPRT to Ki for Plasmodium vivax HGPRT; type: toxicity
[4] = target: T1, Hypoxanthine-guanine phosphoribosyltransferase (Homo sapiens, UniProt P00492); test: Inhibition of human HGPRT using PRib-PP as substrate by Hanes-plot based method
T1 sequence (P00492 whole entry): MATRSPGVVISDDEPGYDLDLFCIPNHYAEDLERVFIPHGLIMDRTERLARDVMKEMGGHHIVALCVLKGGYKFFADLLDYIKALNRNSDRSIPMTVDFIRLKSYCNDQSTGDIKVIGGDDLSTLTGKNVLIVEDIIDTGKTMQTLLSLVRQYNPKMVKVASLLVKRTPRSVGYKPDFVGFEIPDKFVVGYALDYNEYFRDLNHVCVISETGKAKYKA

[5] = Inhibition of Plasmodium vivax HGPRT using PRib-PP as substrate by Hanes-plot based method
[6] = Cytotoxicity against human NHDF cells assessed as cell viability at 100 uM incubated for 72 hrs by Celltiter-Glo assay; type: cell-based; conditions: read-out: Activity
Plasmodium falciparum [7] = test: Antimalarial activity against asexual stage of chloroquine-sensitive Plasmodium falciparum D6 infected in human erythrocytes assessed as inhibition of parasite growth measured after 96 hrs by [3H]-hypoxanthine incorporation assay; type: functional, organism-based
HepG2 [8] = test: Cytotoxicity against human HepG2 cells assessed as reduction in cell viability incubated for 72 hrs by Celltiter-Glo assay; type: cell-based; conditions: HepG2, 72 h
HeLa S3 = test: Cytotoxicity against human HeLa S3 cells assessed as reduction in cell viability at 10 uM incubated for 72 hrs by Celltiter-Glo assay; type: cell-based; conditions: hela s3, 72 h
NHDF [9] = test: Cytotoxicity against human NHDF cells assessed as reduction in cell viability at 50 uM incubated for 72 hrs by Celltiter-Glo assay; type: cell-based
HepG2 [10] = test: Cytotoxicity against human HepG2 cells assessed as reduction in cell viability at 50 uM incubated for 72 hrs by Celltiter-Glo assay; type: cell-based; conditions: hepg2, 72 h
[11] = Selectivity for antimalarial activity against Plasmodium falciparum over cytotoxicity against human NHDF cells; type: toxicity, cell-based; conditions: read-out: Selectivity Index
Plasmodium falciparum [12] = test: Antimalarial activity against asexual stage of chloroquine-resistant Plasmodium falciparum W2 infected in human erythrocytes assessed as parasite growth inhibition measured after 96 hrs by [3H]-hypoxanthine incorporation assay; type: functional, organism-based
HL-60 = test: Cytotoxicity against human HL60 cells assessed as reduction in cell viability at 10 uM incubated for 72 hrs by Celltiter-Glo assay; type: cell-based; conditions: hl-60, 72 h
CCRF-CEM = test: Cytotoxicity against human CCRF-CEM cells assessed as reduction in cell viability at 10 uM incubated for 72 hrs by Celltiter-Glo assay; type: cell-based
NHDF [13] = test: Cytotoxicity against human NHDF cells assessed as reduction in cell viability incubated for 72 hrs by Celltiter-Glo assay; type: cell-based
[14] = Selectivity for antimalarial activity against Plasmodium falciparum over cytotoxicity against human HepG2 cells; type: toxicity, cell-based; conditions: read-out: Selectivity Index
[15] = Cytotoxicity against human HepG2 cells assessed as cell viability at 100 uM incubated for 72 hrs by Celltiter-Glo assay; type: cell-based; conditions: read-out: Activity
HepG2 [16] = test: Cytotoxicity against human HepG2 cells assessed as reduction in cell viability at 10 uM incubated for 72 hrs by Celltiter-Glo assay; type: cell-based; conditions: hepg2, 72 h
NHDF [17] = test: Cytotoxicity against human NHDF cells assessed as reduction in cell viability at 10 uM incubated for 72 hrs by Celltiter-Glo assay; type: cell-based

| Compound | Ki [1] | Ratio Ki [2] | Ratio Ki [3] | Ki [4] | Ki [5] | viability at 72 h, 100 µM [6] | IC50 (Plasmodium falciparum [7]) | IC50 (HepG2 [8]) | Activity (HeLa S3) | Activity (NHDF [9]) | Activity (HepG2 [10]) | selectivity ratio [11] | IC50 (Plasmodium falciparum [12]) | Activity (HL-60) | Activity (CCRF-CEM) | IC50 (NHDF [13]) | selectivity ratio [14] | viability at 72 h, 100 µM [15] | Activity (HepG2 [16]) | Activity (NHDF [17]) |
| --- | --- | --- | --- | --- | --- | --- | --- | --- | --- | --- | --- | --- | --- | --- | --- | --- | --- | --- | --- | --- |
| Nc1nc2c(ncn2[C@H]2CCN(C(=O)CP(=O)(O)O)C2)c(=O)[nH]1 | 0.4 µM | 182 | 28 | 73 µM | 2.6 µM | – | – | – | – | – | – | – | – | – | – | – | – | – | – | – |
| O=c1[nH]cnc2c1ncn2CCN(CCOCCP(=O)(O)O)CCP(=O)(O)O | 0.2 µM | – | – | – | 0.04 µM | – | – | – | – | – | – | – | – | – | – | – | – | – | – | – |
| Nc1nc2c(ncn2CCN(CCOCCP(=O)(O)O)CCP(=O)(O)O)c(=O)[nH]1 | 0.19 µM | 0.45 | 2.725 | – | 0.03 µM | – | – | – | – | – | – | – | – | – | – | – | – | – | – | – |
| Nc1nc2c(ncn2CC2CCCN(CP(=O)([O-])[O-])C2)c(=O)[nH]1.[Na+].[Na+] (stereo not given) | 2 µM | 3.5 | 0.24 | 7 µM | 29 µM | – | – | – | – | – | – | – | – | – | – | – | – | – | – | – |
| Nc1nc2c(ncn2CC2CN(CCP(=O)([O-])[O-])CCN2CCP(=O)([O-])[O-])c(=O)[nH]1.[Na+].[Na+].[Na+].[Na+] (stereo not given) | 2 µM | 0.075 | 0.025 | 0.15 µM | 6 µM | – | – | – | – | – | – | – | – | – | – | – | – | – | – | – |
| O=c1[nH]cnc2c1ncn2CC1CN(CCP(=O)([O-])[O-])CCN1CCP(=O)([O-])[O-].[Na+].[Na+].[Na+].[Na+] (stereo not given) | 3 µM | 0.14 | 0.012 | 0.43 µM | 37 µM | – | – | – | – | – | – | – | – | – | – | – | – | – | – | – |
| CCOC(=O)[C@H](Cc1ccccc1)NP(=O)(CCN1CCC[C@H]1Cn1cnc2c(=O)[nH]cnc21)N[C@@H](Cc1ccccc1)C(=O)OCC | – | – | – | – | – | 117% | 4.1 µM | > 250 µM | Non-Toxic | Non-Toxic | Non-Toxic | > 29 | 6.3 µM | Non-Toxic | Non-Toxic | 184 µM | > 29 | 91% | Non-Toxic | Non-Toxic |
| CCOC(=O)[C@H](Cc1ccccc1)NP(=O)(CCN1CCC[C@@H]1Cn1cnc2c(=O)[nH]cnc21)N[C@@H](Cc1ccccc1)C(=O)OCC | – | – | – | – | – | 106% | 7.1 µM | – | Non-Toxic | Non-Toxic | Non-Toxic | – | 9.1 µM | Non-Toxic | Non-Toxic | – | – | 98% | Non-Toxic | Non-Toxic |
| O=c1[nH]cnc2c1ncn2C[C@@H]1CCCN1CCP(=O)([O-])[O-].[Na+].[Na+] | 44 µM | > 1.1 | – | > 50 µM | > 50 µM | – | – | – | – | – | – | – | – | – | – | – | – | – | – | – |
| Nc1nc2c(ncn2C[C@@H]2CCCN2CCP(=O)([O-])[O-])c(=O)[nH]1.[Na+].[Na+] | 5 µM | 1.8 | 0.45 | 9 µM | 20 µM | – | – | – | – | – | – | – | – | – | – | – | – | – | – | – |
| Nc1nc2c(ncn2C[C@H]2CCCN2CCP(=O)([O-])[O-])c(=O)[nH]1.[Na+].[Na+] | 30 µM | > 1.7 | > 1.3 | > 50 µM | 39 µM | – | – | – | – | – | – | – | – | – | – | – | – | – | – | – |
| CCOC(=O)[C@H](Cc1ccccc1)NP(=O)(CN1CCCC(Cn2cnc3c(=O)[nH]cnc32)C1)N[C@@H](Cc1ccccc1)C(=O)OCC (stereo not given in full) | – | – | – | – | – | 107% | 7.9 µM | – | Non-Toxic | Non-Toxic | Non-Toxic | – | 11.7 µM | Non-Toxic | Non-Toxic | – | – | 105% | Non-Toxic | Non-Toxic |
| CCOC(=O)[C@H](Cc1ccccc1)NP(=O)(CN1CCCC(Cn2cnc3c(=O)[nH]c(N)nc32)C1)N[C@@H](Cc1ccccc1)C(=O)OCC (stereo not given in full) | – | – | – | – | – | 103% | 11.7 µM | – | Non-Toxic | Non-Toxic | Non-Toxic | – | 3.9 µM | Non-Toxic | Non-Toxic | – | – | 103% | Non-Toxic | Non-Toxic |
| O=c1[nH]cnc2c1ncn2C[C@H]1CCCN1CCP(=O)([O-])[O-].[Na+].[Na+] | 15 µM | > 3.3 | – | > 50 µM | > 50 µM | – | – | – | – | – | – | – | – | – | – | – | – | – | – | – |
| CCOC(=O)[C@H](Cc1ccccc1)NP(=O)(CCN1CCN(CP(=O)(N[C@@H](Cc2ccccc2)C(=O)OCC)N[C@@H](Cc2ccccc2)C(=O)OCC)CC1Cn1cnc2c(=O)[nH]cnc21)N[C@@H](Cc1ccccc1)C(=O)OCC (stereo not given in full) | – | – | – | – | – | 3% | 5.1 µM | – | Non-Toxic | Non-Toxic | Non-Toxic | – | 2.7 µM | Non-Toxic | Non-Toxic | – | – | 82% | Non-Toxic | Non-Toxic |
| CCOC(=O)[C@H](Cc1ccccc1)NP(=O)(CCN1CCN(CP(=O)(N[C@@H](Cc2ccccc2)C(=O)OCC)N[C@@H](Cc2ccccc2)C(=O)OCC)CC1Cn1cnc2c(=O)[nH]c(N)nc21)N[C@@H](Cc1ccccc1)C(=O)OCC (stereo not given in full) | – | – | – | – | – | 14% | 55.4 µM | – | Non-Toxic | Non-Toxic | Non-Toxic | – | 32.4 µM | Non-Toxic | Non-Toxic | – | – | 104% | Non-Toxic | Non-Toxic |
| O=c1[nH]cnc2c1ncn2CC1CCCN(CP(=O)([O-])[O-])C1.[Na+].[Na+] (stereo not given) | 17 µM | > 2.9 | > 0.7 | > 50 µM | 72 µM | – | – | – | – | – | – | – | – | – | – | – | – | – | – | – |
| CCOC(=O)[C@H](Cc1ccccc1)NP(=O)(CCN1CCC[C@H]1Cn1cnc2c(=O)[nH]c(N)nc21)N[C@@H](Cc1ccccc1)C(=O)OCC | – | – | – | – | – | 97% | 7.2 µM | > 250 µM | Non-Toxic | Non-Toxic | Non-Toxic | > 35 | 2.5 µM | Non-Toxic | Non-Toxic | 306 µM | > 35 | 98% | Non-Toxic | Non-Toxic |
| O=c1[nH]cnc2c(C3=NCCN3CCCP(=O)(O)O)c[nH]c12 | 4.7 µM | > 16 | > 12 | > 74 µM | 6 µM | – | – | – | – | – | – | – | – | – | – | – | – | – | – | – |
| CCOC(=O)[C@H](Cc1ccccc1)NP(=O)(CCN1CCC[C@@H]1Cn1cnc2c(=O)[nH]c(N)nc21)N[C@@H](Cc1ccccc1)C(=O)OCC | – | – | – | – | – | 103% | 12.1 µM | – | Non-Toxic | Non-Toxic | Non-Toxic | – | 8 µM | Non-Toxic | Non-Toxic | – | – | 98% | Non-Toxic | Non-Toxic |
